Here are results for nine molecules from PubChem BioAssay (NCI).

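Following 48 hours of exposure in 96-well plates, responses at five concentrations were used to interpolate endpoints linearly. GI50 marks 50% less growth. The concentration for full growth arrest is given as TGI.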 A value given as a limit tells only on which side of the number the result lay.

Some test systems named below: SN12C renal; MALME-3M melanoma; UACC-257 melanoma; TK-10 renal; HOP-92 NSCLC; CCRF-CEM leukemia; OVCAR-4 ovarian; SR leukemia; NCI-H23 lung; UACC-62 melanoma.
Holding throughout (assay): DTP human tumour cell line panel, 48 h

In the case of `N#Cc1cc([N+](=O)[O-])ccc1NC(=O)C(=O)Nn1c(=S)[nH]c2ccccc2c1=O`, the TGI with SN12C renal, in the assay with MALME-3M melanoma, in the assay with UACC-257 melanoma, in the assay with TK-10 renal, with HOP-92 NSCLC and with CCRF-CEM leukemia was more than 100 µM throughout. Besides, the TGI in the assay with OVCAR-4 ovarian, with SR leukemia and in the assay with NCI-H23 lung was more than 100 µM in each case.
For `COc1cccc(/C=C/C(=O)c2cc3c(N)c(C(=O)Nc4ccccc4)sc3nc2C)c1`, the GI50 in the assay on SN12C renal was 1.12 µM; in the assay on MALME-3M melanoma, 2.03 µM; in the assay on UACC-257 melanoma it was 1.9 µM; in the assay on TK-10 renal it was 1.56 µM; with HOP-92 NSCLC, 1.08 µM; with OVCAR-4 ovarian it was 1.78 µM. In addition, the GI50 in the assay with SR leukemia is 1.28 µM; in the assay with NCI-H23 lung, 1.2 µM; with UACC-62 melanoma, 0.943 µM. For the same molecule, the TGI is 2.78 µM in the assay with SN12C renal; 15 µM in the assay on MALME-3M melanoma; 8.97 µM with UACC-257 melanoma; 5.47 µM in the assay on TK-10 renal; 4.24 µM in the assay with HOP-92 NSCLC; more than 50 µM in the assay on OVCAR-4 ovarian. Also, the TGI was 6.46 µM in the assay with SR leukemia, 3.05 µM with NCI-H23 lung and 2.19 µM with UACC-62 melanoma.
For the molecule `COc1cc(/C=C/[N+](=O)[O-])cc(OC)c1`, the GI50 in the assay with SN12C renal is 3.38 µM; in the assay on MALME-3M melanoma, 3.29 µM; with UACC-257 melanoma it was 2.48 µM; with HOP-92 NSCLC, 4.78 µM; with CCRF-CEM leukemia, 2.02 µM; in the assay with OVCAR-4 ovarian, 4.87 µM. Moreover, the GI50 was 1.14 µM in the assay on SR leukemia, 1.85 µM with NCI-H23 lung and 2.42 µM in the assay with UACC-62 melanoma. Moreover, the TGI was found to be 15.9 µM in the assay on SN12C renal; 10.4 µM with MALME-3M melanoma; 7.57 µM with UACC-257 melanoma; 20.5 µM in the assay on HOP-92 NSCLC; 6.32 µM in the assay with CCRF-CEM leukemia; 17.3 µM in the assay on OVCAR-4 ovarian. Further, the TGI was found to be 5.45 µM in the assay on SR leukemia, 4.37 µM with NCI-H23 lung and 7.34 µM in the assay on UACC-62 melanoma.
On to `O=c1[nH]c(C2CCCCC2)nc2ccc(Cl)cc12`, for which the TGI in the assay with SN12C renal, with MALME-3M melanoma, in the assay on UACC-257 melanoma, with TK-10 renal, in the assay with HOP-92 NSCLC and in the assay on SR leukemia was more than 100 µM each time. Further, the TGI with NCI-H23 lung and in the assay with UACC-62 melanoma was more than 100 µM each time.
For `O=C(COc1ccc(Cl)cc1Cl)NNc1ccc([N+](=O)[O-])cc1`, the GI50 was 80 µM in the assay with SN12C renal; 23.6 µM with MALME-3M melanoma; 99.6 µM with UACC-257 melanoma; 30.1 µM in the assay with TK-10 renal; 12.1 µM in the assay with HOP-92 NSCLC; more than 100 µM in the assay on OVCAR-4 ovarian. Besides, the GI50 in the assay on SR leukemia was 49.9 µM; with NCI-H23 lung it was 41.5 µM; in the assay with UACC-62 melanoma, 27.7 µM. Besides, the TGI with SN12C renal was more than 100 µM; in the assay on MALME-3M melanoma, 57.1 µM; in the assay on UACC-257 melanoma, more than 100 µM; in the assay on TK-10 renal, 74.2 µM; in the assay with HOP-92 NSCLC, 31.7 µM; in the assay with OVCAR-4 ovarian, more than 100 µM. Besides, the total growth inhibition concentration (TGI) in the assay with SR leukemia, in the assay on NCI-H23 lung and in the assay with UACC-62 melanoma was more than 100 µM in each case.
Take `COc1ccc(N2CCN(c3nc(-c4ccccn4)nc4sc5c(c34)CCCCCC5)CC2)cc1`: the GI50 in the assay with SN12C renal is 5.99 µM; in the assay with UACC-257 melanoma it was 7.22 µM; with TK-10 renal, more than 100 µM; in the assay with HOP-92 NSCLC it was 3.24 µM; in the assay with CCRF-CEM leukemia, 4.32 µM; in the assay with OVCAR-4 ovarian, 8.58 µM. In addition, the values for the GI50 in the assay with SR leukemia, with NCI-H23 lung and in the assay with UACC-62 melanoma were 3.18 µM, 16.9 µM and 6.86 µM, respectively. Further, the total growth inhibition concentration (TGI) in the assay on SN12C renal, in the assay with UACC-257 melanoma, in the assay on TK-10 renal, in the assay on HOP-92 NSCLC, in the assay with CCRF-CEM leukemia and with OVCAR-4 ovarian was more than 100 µM throughout. In addition, the TGI in the assay on SR leukemia, in the assay with NCI-H23 lung and in the assay on UACC-62 melanoma was more than 100 µM each time.
`CS(=O)(=O)Nc1cc(-c2ccc3ncnc(Nc4ccc(OCc5ccccn5)c(Cl)c4)c3c2)cnc1Cl`: the GI50 is 0.35 µM with SN12C renal; 0.0851 µM with MALME-3M melanoma; 0.378 µM with UACC-257 melanoma; 0.23 µM in the assay on TK-10 renal; 0.217 µM with CCRF-CEM leukemia; 1.49 µM with OVCAR-4 ovarian. In addition, the results for the GI50 in the assay on SR leukemia, in the assay with NCI-H23 lung and in the assay on UACC-62 melanoma were 0.374 µM, 0.381 µM and 0.264 µM, respectively. Moreover, the TGI was more than 100 µM in the assay on SN12C renal; 0.736 µM in the assay on MALME-3M melanoma; 7.1 µM in the assay with UACC-257 melanoma; 1.78 µM with TK-10 renal; more than 100 µM in the assay with CCRF-CEM leukemia; more than 100 µM in the assay with OVCAR-4 ovarian. For the same molecule, the TGI is 2.77 µM with SR leukemia, more than 100 µM in the assay on NCI-H23 lung and 1.58 µM in the assay on UACC-62 melanoma.
Turning to `Cc1ccc(C2=C(c3ccccc3)C(O)(c3ccccc3)C(c3ccccc3)=C2c2ccc(C)cc2)cc1`, the TGI in the assay on SN12C renal, in the assay on MALME-3M melanoma, with UACC-257 melanoma, in the assay on TK-10 renal, with SR leukemia and with NCI-H23 lung was more than 100 µM each time.
On to `Clc1ccc(Nc2nnc(COc3ccccc3)c3ccccc23)cc1`, for which the GI50 in the assay on SN12C renal was 2.12 µM; in the assay with MALME-3M melanoma it was 1.38 µM; in the assay with UACC-257 melanoma it was 2.54 µM; with HOP-92 NSCLC it was 0.331 µM; with CCRF-CEM leukemia it was 2.8 µM; in the assay on OVCAR-4 ovarian it was 2.09 µM. Also, the GI50 in the assay on SR leukemia was 1.23 µM; with NCI-H23 lung, 1.56 µM; in the assay on UACC-62 melanoma, 1.24 µM. Also, the TGI with SN12C renal turned out to be 8.07 µM; with MALME-3M melanoma, 7.3 µM; with UACC-257 melanoma, 5.82 µM; in the assay on HOP-92 NSCLC it was 3.09 µM; with CCRF-CEM leukemia it was 14.2 µM; in the assay on OVCAR-4 ovarian it was 25 µM. Besides, the values for the TGI in the assay on SR leukemia, in the assay on NCI-H23 lung and in the assay on UACC-62 melanoma were 11.2 µM, 7.87 µM and 5.69 µM, respectively.

What is called TGI is the concentration giving total growth inhibition. As a reminder, the GI50 is the concentration that inhibits growth by half.
